The text below walks through data of patent US10428013B2, “Amide compound, preparation method and uses thereof” (Shanghai Institute of Phamaceutical Industry, priority 2011, dated 2019).

Data set [1] concerns Cholelithiasis Model of Golden Hamster. The experiment in a line: Screening in the cholelithiasis model of golden hamster (biochemical measurement of bile). Format: in vivo, golden hamsters. To be noted: dosed 45 days, X ± SD. The procedure: Screening with the Compounds Prepared in Experiment 1 to 21 in the Cholelithiasis Model of Golden Hamster
68 male golden hamsters, 50-60 g, supplied by Shanghai Slaccas Laboratory Animal Company Limited.
The animals were fed for acclimation for 3 days, with 8 animals as blank control (Control) according to weight. The control was dosed with normal rat feedstuff, and the rest was dosed with feedstuff leading to cholelithiasis (sucrose 32.1%, cheese 64.2%, cholesterol 0.2%, salt 3%, vitamin B1 […], concentrated fish liver oil 0.4%). The animals were fed for acclimation for another 7 days, and divided into model group (Model), simvastatin group (Sim, 10 mg/kg), Ursodesoxycholic acid group (UDCA, 40 mg/kg), and compound group, n=6/group.
[…] 2:00-3:00 daily. The animals were weighed at Monday, and observed for hair color, stool, and variation of activation level.
The animals were dosed for continuous 45 days and then fasted for 12 hours; were anesthetized with 30 mg/kg sodium secobarbital via intraperitoneal injection; had 1 ml blood sampled via abdominal aorta; had gallbladder exposed, with an orifice on the gallbladder being clamped by the ophthalmological pliers and bile in the gallbladder being sucked with 1 ml syringe.
The Hitachi Automatic Biochemical Analyzer 7080 was used to measure cholesterol (CHO), total total bilirubin (TBIL), total bile acid (TBA) and total protein (TP) in bile.
Laboratory data was expressed as X±SD, and comparison of measurement data between groups was carried out by t-testing, with non-parametric testing for enumeration data.

Data set [2] concerns Hyperlipemia Model of SD Rat. The experiment in a line: Screening in the hyperlipemia model of SD rat (fat emulsion by gavage; serum lipids). The class given is in vivo. To be noted: hyperlipemia SD rats, dosed 21 days, X ± SD. The procedure:
Materials and Methods for Screening with the Compounds Prepared in Experiment 1 to 21 in the Hyperlipemia Model of SD Rat
SD rats, male, 150-180 g, supplied by Shanghai Slaccas Laboratory Animal Company Limited.
Preparation of fat emulsion: 500 g lard oil was weighed and placed into a vessel, heated for melting, and upon heating up to the temperature of 100° C., 200 g cholesterol was added and fully dissolved, then 20 g propylthiouracil was added. After full stirring and dissolving, 500 ml Tween 80 was added to give an oil phase. Meanwhile, 600 ml distilled water and 400 ml 1,2-propylene glycol were heated to 60° C. in water bath, and then 40 g sodium deoxycholate was added with stirring, until full dissolution, to give an aqueous phase. The aqueous phase was added into the oil phase and fully and uniformly mixed, to prepare the fat emulsion.
Formulation of the solution for the compounds: an appropriate amount of compounds was triturated with appropriate amount of Tween 80 for homogeneous dispersion, and then sufficient CMC-Na solution was added and fully triturated, suspended to give the solution for the compounds.
The animals were fed for acclimation for 3 days, with 8 animals as blank control (Control) according to weight, and the rest was subject to intragastric administration of fat emulsion at 1 ml/100 g weight at A.M. 9:00-11:00 daily for continuous 2 weeks; the animals were fasted for 12 hours, and had 1 ml blood sampled at orbital cavity, which was measured with the Hitachi Automatic Biochemical Analyzer 7080 for serum cholesterol (CHO), triglyceride (TO), low-density lipoprotein (LDL-C) and high-density lipoprotein (HDL-C), with the animals having CHO of 4-7 mmol/L for experiment.
The animals dosed with fat emulsion for 2 weeks were divided into model group (Model), simvastatin group (Sim, 10 mg/kg) and compound group (40 mg/kg) according to weight, and continued to receive intragastric administration with fat emulsion; at the same time, the dosed group was administered with respective amount of drug, and the model group was administered with equal volume of solvent. Fat emulsion was dosed by gavage at A.M., and drug was dosed at P.M. The animals were weighed at Monday, and were observed. The animals were dosed for continuous 21 days, and fasted for 12 hours, with 1 ml blood sampling at orbital cavity. The liver was exposed and observed for pathologic condition; after slicing and weighing, it was fixed into the 4% formaldehyde solution for pathologic examination.
The Hitachi Automatic Biochemical Analyzer 7080 was used to measure serum cholesterol (CHO), triglyceride (TG), low-density lipoprotein (LDL-C) and high-density lipoprotein (HDL-C).
Laboratory data were expressed as X±SD (Standard Deviation), and comparison between groups was carried out by t-testing.

For another data set, the system named is Mice. Description: Testing for acute toxicity in mice. The following applies: orally by gavage, 5 g/kg, observation 14 days. Format: in vivo. The method, then: Testing for Acute Toxicity in Mice
The compounds was dissolved into an appropriate amount of Tween-80, and suspended and dispersed uniformly into a given amount of CMC-Na solution, which was administered orally and by gavage at a dose of 5 g/kg, with no toxicity associated with administration being observed, and no death of animals occurred during observation of continuous 14 days. From the results, the sample Compound 01, Compound 02, Compound 03, Compound 04, Compound 05, Compound 06, Compound 07, Compound 08, Compound 09, Compound 10, Compound 11, Compound 12, Compound 13, Compound 14, Compound 15, Compound 16, Compound 17, Compound 18, Compound 19, Compound 20 and Compound 21 were safe.

For `CC(Oc1ccc(Cl)cc1)(C(=O)NCC(=O)c1ccc(O)cc1)C1CC1` (stereo not shown) [Compound 20], in data set [1] (20 mg/kg), the “Cholesterol (CHO) in bile” value was determined as 0.92 ± 0.66 mmol/L, the “Total bile acid (TBA) in bile” value is reported as 16.80 ± 9.62 mmol/L, the “Total protein (TP) in bile” value is 32.94 ± 19.18 g/L and the “Total total bilirubin (TBIL) in bile” value is 75.92 ± .072 µmol/L. For the same compound, in data set [2] (40 mg/kg), the “CHO1 Concentration (serum cholesterol)” value was 19.88 ± 0.84 mmol/L, the “HDL-C Concentration (serum high-density lipoprotein)” value (shortened to “HDL-C Concentration”) amounted to 2.63 ± 0.57 mmol/L, the “LDL-C Concentration (serum low-density lipoprotein)” value (shortened to “LDL-C Concentration”) was determined as 18.48 ± 0.43 mmol/L and the “TG Concentration (serum triglyceride)” value worked out at 1.72 ± 0.26 mmol/L.
In the case of `CCC(C)(Oc1ccc(C2(c3ccc(OC(C)(CC)C(=O)NCC(=O)c4ccc(O)cc4)cc3)CCCCC2)cc1)C(=O)O` (stereo not shown) [Compound 11], in data set [1] (80 mg/kg), the “Cholesterol (CHO) in bile” value was determined as 0.82 ± 0.58 mmol/L, the “Total bile acid (TBA) in bile” value came out at 17.46 ± 7.77 mmol/L, the “Total protein (TP) in bile” value came out at 28.66 ± 8.48 g/L and the “Total total bilirubin (TBIL) in bile” value stood at 48.9 ± 22.10 µmol/L. Also, in data set [2] (40 mg/kg), the “CHO1 Concentration (serum cholesterol)” value worked out at 12.18 ± 3.12 mmol/L, the “HDL-C Concentration” value worked out at 1.79 ± 0.34 mmol/L, the “LDL-C Concentration” value is on record as 11.37 ± 3.66 mmol/L and the “TG Concentration (serum triglyceride)” value was determined as 1.13 ± 0.14 mmol/L.
For `CCC(CCCOc1cc(C)ccc1C)C(=O)N(C)CC(=O)c1cc(C)cc(O)c1` (stereo not shown) [Compound 16], in data set [1] (40 mg/kg), the “Cholesterol (CHO) in bile” value is 0.97 ± 0.62 mmol/L, the “Total bile acid (TBA) in bile” value was 19.74 ± 12.14 mmol/L, the “Total protein (TP) in bile” value is 40.70 ± 26.17 g/L and the “Total total bilirubin (TBIL) in bile” value stood at 55.0 ± 29.38 µmol/L. Also, in data set [2] (40 mg/kg), the “CHO1 Concentration (serum cholesterol)” value is reported as 9.48 ± 1.27 mmol/L, the “HDL-C Concentration” value is listed as 1.32 ± 0.39 mmol/L, the “LDL-C Concentration” value is 7.13 ± 1.52 mmol/L and the “TG Concentration (serum triglyceride)” value came to 0.78 ± 0.25 mmol/L.
For the compound `Cc1ccc(C)c(OCCCC(C)(C)C(=O)NCC(=O)c2ccc(CO)cc2)c1` [Compound 21], in data set [2] (40 mg/kg), the “CHO1 Concentration (serum cholesterol)” value amounted to 14.42 ± 2.75 mmol/L, the “HDL-C Concentration” value is given as 1.69 ± 0.26 mmol/L, the “LDL-C Concentration” value was determined as 12.15 ± 3.12 mmol/L and the “TG Concentration (serum triglyceride)” value was 2.00 ± 0.52 mmol/L. In the data set with Mice, the “Acute toxicity, overall result” value was “safe”.
On to `CCC(C)(C)C(=O)O[C@H]1C[C@@H](C)C=C2C=C[C@H](C)[C@H](CC[C@@H]3C[C@@H](O)CC(=O)O3)[C@H]21` [Simvastatin, reference compound], for which, in data set [1] (10 mg/kg), the “Cholesterol (CHO) in bile” value was determined as 1.07 ± 0.63 mmol/L, the “Total bile acid (TBA) in bile” value is 7.68 ± 3.31 mmol/L, the “Total protein (TP) in bile” value came out at 35.52 ± 18.04 g/L and the “Total total bilirubin (TBIL) in bile” value was 79.2 ± 34.2 µmol/L. In addition, in data set [2] (10 mg/kg), the “CHO1 Concentration (serum cholesterol)” value stood at 12.52 ± 1.34 mmol/L, the “HDL-C Concentration” value worked out at 1.52 ± 0.32 mmol/L, the “LDL-C Concentration” value is recorded as 11.92 ± 1.44 mmol/L and the “TG Concentration (serum triglyceride)” value came to 1.41 ± 0.16 mmol/L.
